The values that follow come from PubChem BioAssay AID256 (DTP/NCI, 2004).

Values joined by “and” are separate entries in the source; they are usually repeats but may differ in a detail not shown here. Equal values may be shown once. Toxic doses and inconclusive results are not listed.

In this test the test system is CD2F1 mice, L1210 leukemia ip, survival T/C. The test can be described thus: NCI In Vivo Anticancer Drug Screen. Data for tumor model L1210 Leukemia (intraperitoneal) in CD2F1 (CDF1) mice. As to conditions: higher = longer survival. The procedure, abridged: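 Compound-dosed mice with transplantable tumor versus matched vehicle controls; endpoint ratio T/C reported.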

The mark [1] stands for this setting: endpoint: mean survival time, dose: 50.0 mg/kg/injection, schedule: Q01DX009 (ip), vehicle: saline with Tween-80.
Where [2] appears, read: endpoint: mean survival time, dose: 200.0 mg/kg/injection, schedule: Q01DX009 (ip), vehicle: saline with Tween-80.
Where [3] appears, read: endpoint: mean survival time, dose: 100.0 mg/kg/injection, schedule: Q01DX009 (ip), vehicle: saline with Tween-80.

In the case of `O=C(CNC(=O)Nc1cccc([N+](=O)[O-])c1)N/N=C/C=C/c1ccccc1`, the T/C reads like this: under setting [1], 88 % of control; under setting [2], 88 % of control.

With `C=C(C)C12OC3(CCCCCCCCC)OC1C1C4OC4(COC(=O)CCCCCCCCCCCCCCC)C(O)C4(O)C(=O)C(C)=CC4C1(O3)C(C)C2OC(=O)c1ccccc1` (stereo not drawn), the T/C (endpoint: mean survival time, dose: 5.0 micrograms/kg/injection, schedule: Q01DX009 (ip), vehicle: saline + alcohol) is 97 % of control; the T/C (endpoint: mean survival time, dose: 10.0 micrograms/kg/injection, schedule: Q01DX009 (ip), vehicle: saline + alcohol) is 117 % of control; the T/C (endpoint: mean survival time, dose: 20.0 micrograms/kg/injection, schedule: Q01DX009 (ip), vehicle: saline + alcohol) is 105 % of control; the T/C (endpoint: mean survival time, dose: 40.0 micrograms/kg/injection, schedule: Q01DX009 (ip), vehicle: saline + alcohol) was 112 % of control.

For `CCC(C)(S(=O)(=O)CC)S(=O)(=O)CC`, the T/C is 102 % of control (endpoint: mean survival time, dose: 100.0 mg/kg/injection, schedule: Q04DX003 (ip), vehicle: saline with Tween-80); 98 % of control (endpoint: mean survival time, dose: 200.0 mg/kg/injection, schedule: Q04DX003 (ip), vehicle: saline with Tween-80); 98 % of control (endpoint: mean survival time, dose: 400.0 mg/kg/injection, schedule: Q04DX003 (ip), vehicle: saline with Tween-80).

For the compound `COc1ccc(CC2=NCCN2)cc1`, the T/C runs as follows: (endpoint: mean survival time, dose: 25.0 mg/kg/injection, schedule: Q01DX009 (ip), vehicle: saline with Tween-80) 98 % of control; under setting [1], 98 % of control; under setting [3], 98 % of control.

For `CCCCCCC(O)C/C=C\CCCCCCCC(=O)O` (stereo not drawn), the T/C reads like this: (endpoint: mean survival time, dose: 50.0 mg/kg/injection, schedule: Q04DX002 (ip), vehicle: saline) 86 % of control; (endpoint: mean survival time, dose: 100.0 mg/kg/injection, schedule: Q04DX002 (ip), vehicle: saline) 90 % of control.

For `CCCN1CSC(=S)N(Cc2ccccc2)C1`, the T/C runs as follows: under setting [3], 92 % of control; under setting [2], 97 % of control; (endpoint: mean survival time, dose: 400.0 mg/kg/injection, schedule: Q01DX009 (ip), vehicle: saline with Tween-80) 92 % of control.

As for `O=S1(=O)C=CCCC=C1`, the T/C is 93 % of control (endpoint: mean survival time, dose: 50.0 mg/kg/injection, schedule: Q01DX009 (ip), vehicle: Klucel (hydroxypropylcellulose) (HPC)) and 93 % of control (endpoint: mean survival time, dose: 100.0 mg/kg/injection, schedule: Q01DX009 (ip), vehicle: Klucel (hydroxypropylcellulose) (HPC)).

In the case of `CO[C@@]12[C@@H]3N[C@@H]3CN1C1=C(C(=O)C(N(C)c3ccc(O)cc3)=C(C)C1=O)[C@@H]2COC(N)=O`, the T/C is, setting by setting: (endpoint: median survival time, dose: 3.0 mg/kg/injection, schedule: Q01DX001 (ip), vehicle: distilled water + Tween-80) 100 % of control; (endpoint: median survival time, dose: 6.0 mg/kg/injection, schedule: Q01DX001 (ip), vehicle: distilled water + Tween-80) 121 % of control; (endpoint: median survival time, dose: 12.0 mg/kg/injection, schedule: Q01DX001 (ip), vehicle: distilled water + Tween-80) 117 % of control and 102 % of control; (endpoint: median survival time, dose: 24.0 mg/kg/injection, schedule: Q01DX001 (ip), vehicle: distilled water + Tween-80) 113 % of control.
